Measured values from patent US4324728A, “Compound nanaomycin A and derivatives thereof and a process for producing the same” (The Kitasato Institute, priority 1976, dated 1982).
Values after ≈ are worked out from the molar mass of the structure shown. Where two headings read alike, the source gives them in different places.

Assays:
[1] = test system: Staphylococcus aureus FDA 209P; test: Minimal inhibitory concentration (agar); type: cell-based; details: FDA209P, 48 h, nutrient agar, pH 7.0, 2 days, 37° C.
[2] = test system: Bacillus subtilis PCI 219; test: Minimal inhibitory concentration (agar); type: cell-based; details: pH 7.0, 2 days, 37° C.
Description: (§1) Medium N nutrient agar (pH 7.0, 2 days, 37° C.)
(§2) MIC Minimal inhibitory concentration
(§3) N nutrient agar (pH 7.0, 2 days, 37° C.)

Sarcina lutea PCI 1001 = test: Minimal inhibitory concentration (agar); type: cell-based; details: pH 7.0, 2 days, 37° C.
Description: as §1, §2, §3

[3] = test system: Staphylococcus aureus FDA 209P (JC-1); test: Minimal inhibitory concentration (agar); type: cell-based; details: FDA209P, 48 h, nutrient agar, pH 7.0, 2 days, 37° C.
Description: as §1, §2, §3

Salmonella typhimurium = test: Minimal inhibitory concentration (agar); type: cell-based; details: Salmonella enterica, 48 h, pH 7.0, 2 days, 37° C.
Trichophyton schoenleini = test: Minimal inhibitory concentration (agar); type: cell-based; details: pH 6.4, 4 days, 27° C.
Description: P potato agar (pH 6.4, 4 days, 27° C.)
as §2
Minimal inhibitory concentration was assayed by agar dilution method
(potato agar, pH 6.4, 27° C., 4 days).

Saccharomyces sake = test: Minimal inhibitory concentration (agar); type: cell-based; details: Saccharomyces, 96 h, pH 6.4, 4 days, 27° C., read-out: MIC
[4] = test system: Aspergillus niger ATCC 6275; test: Minimal inhibitory concentration (agar); type: cell-based; details: ATCC6275, 96 h, pH 6.4, 4 days, 27° C.
Microsporum gypseum 704 = test: Minimal inhibitory concentration (agar); type: cell-based; details: Nannizzia gypsea, 704, 96 h; potato agar, pH 6.4, 4 days, 27° C.
Trichophyton asteroides = test: Minimal inhibitory concentration (agar); type: cell-based; details: pH 6.4, 4 days, 27° C.
Trichophyton ferrugineum = test: Minimal inhibitory concentration (agar); type: cell-based; details: pH 6.4, 4 days, 27° C.
[5] = test system: Trichophyton interdigitale; test: Minimal inhibitory concentration (agar); type: cell-based; details: Trichophyton interdigitale, 96 h; potato agar, pH 6.4, 4 days, 27° C.; read-out: MIC
Trichophyton roseum = test: Minimal inhibitory concentration (agar); type: cell-based; details: pH 6.4, 4 days, 27° C.
[6] = test system: Mycobacterium smegmatis ATCC 607; test: Minimal inhibitory concentration (agar); type: cell-based; details: Mycolicibacterium smegmatis, ATCC607, 48 h; nutrient agar, pH 7.0, 2 days, 37° C.
[7] = test system: Aspergillus fumigatus IAM 2162; test: Minimal inhibitory concentration (agar); type: cell-based; details: IAM2162, 96 h, potato agar, pH 6.4, 4 days, 27° C.
Description: | P potato agar (pH 6.4, 4 days, 27° C.)

[8] = test system: Aerobacter aerogenes IAM 1183; test: Minimal inhibitory concentration (agar); type: cell-based; details: Klebsiella aerogenes, IAM1183, 48 h; nutrient agar, pH 7.0, 2 days, 37° C.
Description: as §3

Bacillus cereus T = test: Minimal inhibitory concentration (agar); type: cell-based; details: 48 h, nutrient agar, pH 7.0, 2 days, 37° C.
Description: as §3

[9] = test system: Corynebacterium paurometabolum; test: Minimal inhibitory concentration (agar); type: cell-based; details: Tsukamurella paurometabola, 48 h; nutrient agar, pH 7.0, 2 days, 37° C.
Description: as §3

Proteus mirabilis = test: Minimal inhibitory concentration (agar); type: cell-based; details: 48 h, nutrient agar, pH 7.0, 2 days, 37° C.
Description: as §3

[10] = test system: Proteus vulgaris IFO 3167; test: Minimal inhibitory concentration (agar); type: cell-based; details: IFO3167, 48 h, nutrient agar, pH 7.0, 2 days, 37° C.
Description: as §3

[11] = test system: Pseudomonas aeruginosa P-3; test: Minimal inhibitory concentration (agar); type: cell-based; details: P3, 48 h, nutrient agar, pH 7.0, 2 days, 37° C.
Description: as §3

Shigella sonnei E 33 = test: Minimal inhibitory concentration (agar); type: cell-based; details: E33, 48 h, nutrient agar, pH 7.0, 2 days, 37° C.
Description: as §3

[12] = test system: Staphylococcus aureus FS 1227 (PC-R); test: Minimal inhibitory concentration (agar); type: cell-based; details: 48 h, nutrient agar, pH 7.0, 2 days, 37° C., penicillin resistant strain
Description: as §3

[13] = test system: Staphylococcus aureus KB 61 (R-TC, EM); test: Minimal inhibitory concentration (agar); type: cell-based; details: 48 h, nutrient agar, pH 7.0, 2 days, 37° C., tetracyclin, erythromycin resistant strain, read-out: MIC
Description: as §3

[14] = test system: Staphylococcus aureus KB 64 (R-TC, EM); test: Minimal inhibitory concentration (agar); type: cell-based; details: 48 h, nutrient agar, pH 7.0, 2 days, 37° C., tetracyclin, erythromycin resistant strain, read-out: MIC
Description: as §3

[15] = test system: Mycoplasma gallisepticum KP-13; test: Antimycoplasma activity, inhibition zone; type: cell-based; details: Eiken PPLO agar, pH 7.8, 8 days, 37° C.
Description: E Eiken PPLO agar (pH 7.8, 8 days, 37° C.)
(§4) Nanaomycin A and derivatives thereof according to the present invention are assayed in a similar manner to that designated as the paper disc method by Itoh, et al [J. of Antibiotics, 24, 855-859 (1971)], for example, as follows: […]

[16] = test system: Acholeplasma laidlawii (A); test: Antimycoplasma activity, inhibition zone; type: cell-based; details: Hokken PPLO agar, pH 7.8, 8 days, 37° C.
Description: H Hokken PPLO agar (pH 7.8, 8 days, 37° C.)
as §4

Gram-positive bacteria = test: Antibacterial activity (in words); type: cell-based
mycoplasmas = test: Antimycoplasma activity (in words); type: cell-based
Solubility = type: physicochemical
in vivo = details: mouse, ip
[17] = Bacillus subtilis, PCI219, 48 h, pH 7, nutrient agar, read-out: MIC
[18] = Micrococcus luteus, PCI1001, 48 h, pH 7, nutrient agar, read-out: MIC
[19] = Trichophyton, 96 h, pH 6.4, potato agar, read-out: MIC
[20] = Microsporum ferrugineum, 96 h, pH 6.4, potato agar, read-out: MIC

CC1OC(CC(=O)O)CC2=C1C(=O)c1c(O)cccc1C2=O (centres unmarked) [Nanaomycin A, nanaomycin A]
MIC [1]: 3.9 µg/mL (≈ 12.9 µM)
MIC [2, 17]: 6.3 µg/mL (≈ 20.8 µM)
MIC ([2]; nutrient agar): 7.8 µg/mL (≈ 25.8 µM)
MIC (Sarcina lutea PCI 1001; [18]): 1.6 µg/mL (≈ 5.29 µM)
MIC (Sarcina lutea PCI 1001; nutrient agar): 2.0 µg/mL (≈ 6.62 µM)
MIC [3]: 2 µg/mL (≈ 6.62 µM)
MIC (Salmonella typhimurium; nutrient agar): 100 µg/mL (≈ 331 µM)
MIC (Salmonella typhimurium; pH 7, nutrient agar): 62.5 µg/mL (≈ 207 µM)
MIC (Trichophyton schoenleini; [19]): < 0.2 µg/mL
MIC (Trichophyton schoenleini; potato agar): 0.2 µg/mL (≈ 0.662 µM)
MIC (Saccharomyces sake; pH 6.4, potato agar): 12.5 µg/mL (≈ 41.4 µM)
MIC (Saccharomyces sake; potato agar): 31.2 µg/mL (≈ 103 µM)
MIC ([4]; pH 6.4, potato agar): 62.5 µg/mL (≈ 207 µM)
MIC ([4]; potato agar, read-out: MIC): 25 µg/mL (≈ 82.7 µM)
MIC (Microsporum gypseum 704): 0.8 µg/mL (≈ 2.65 µM)
MIC (Trichophyton asteroides; [19]): 0.8 µg/mL (≈ 2.65 µM)
MIC (Trichophyton asteroides; potato agar): 1.6 µg/mL (≈ 5.29 µM)
MIC (Trichophyton ferrugineum; [20]): 0.8 µg/mL (≈ 2.65 µM)
MIC (Trichophyton ferrugineum; potato agar): 1.6 µg/mL (≈ 5.29 µM)
MIC [5]: 1.6 µg/mL (≈ 5.29 µM)
MIC (Trichophyton roseum; [19]): < 0.2 µg/mL
MIC (Trichophyton roseum; potato agar): 0.4 µg/mL (≈ 1.32 µM)
MIC [6]: 100 µg/mL (≈ 331 µM)
MIC [7]: 6.3 µg/mL (≈ 20.8 µM)
MIC [8]: > 100 µg/mL
MIC (Bacillus cereus T): 12.5 µg/mL (≈ 41.4 µM)
MIC [9]: 12.5 µg/mL (≈ 41.4 µM)
MIC (Proteus mirabilis): > 100 µg/mL
MIC [10]: 50 µg/mL (≈ 165 µM)
MIC [11]: > 100 µg/mL
MIC (Shigella sonnei E 33): 100 µg/mL (≈ 331 µM)
MIC [12]: 1.6 µg/mL (≈ 5.29 µM)
MIC [13]: 1.6 µg/mL (≈ 5.29 µM)
MIC [14]: 0.8 µg/mL (≈ 2.65 µM)
Inhibition Zone [15]: 28.7 mm
Inhibition Zone [16]: none
activity against Gram-positive bacteria (Gram-positive bacteria): strong activity
activity against mycoplasma(s) (mycoplasmas): high activity
Solubility in ether (Solubility): Easily soluble
Solubility in methanol, ethanol, ethylacetate, chloroform and acetone (Solubility): Easily soluble
Solubility in n-hexane and petroleum ether (Solubility): Insoluble
Solubility in water (Solubility): Insoluble
LD50 (in vivo): 28.2 mg/kg

CC(=O)Oc1cccc2c1C(=O)C1=C(CC(CC(=O)O)OC1C)C2=O (centres unmarked) [Acetylnanaomycin A, acetylnanaomycin A]
MIC [1]: 1.6 µg/mL (≈ 4.65 µM)
MIC [2, 17]: 3.1 µg/mL (≈ 9 µM)
MIC (Sarcina lutea PCI 1001; [18]): 1.6 µg/mL (≈ 4.65 µM)
MIC [3]: 0.8 µg/mL (≈ 2.32 µM)
MIC (Salmonella typhimurium; nutrient agar): 50 µg/mL (≈ 145 µM)
MIC (Trichophyton schoenleini; [19]): < 0.2 µg/mL
MIC (Saccharomyces sake; pH 6.4, potato agar): 12.5 µg/mL (≈ 36.3 µM)
MIC ([4]; potato agar, read-out: MIC): 25 µg/mL (≈ 72.6 µM)
MIC (Microsporum gypseum 704): 0.4 µg/mL (≈ 1.16 µM)
MIC (Trichophyton asteroides; [19]): 0.8 µg/mL (≈ 2.32 µM)
MIC (Trichophyton ferrugineum; [20]): 0.8 µg/mL (≈ 2.32 µM)
MIC [5]: 1.6 µg/mL (≈ 4.65 µM)
MIC (Trichophyton roseum; [19]): 0.4 µg/mL (≈ 1.16 µM)
MIC [6]: 50 µg/mL (≈ 145 µM)
MIC [7]: 6.3 µg/mL (≈ 18.3 µM)
MIC [8]: > 100 µg/mL
MIC (Bacillus cereus T): 25 µg/mL (≈ 72.6 µM)
MIC [9]: 6.3 µg/mL (≈ 18.3 µM)
MIC (Proteus mirabilis): > 100 µg/mL
MIC [10]: 50 µg/mL (≈ 145 µM)
MIC [11]: > 100 µg/mL
MIC (Shigella sonnei E 33): 100 µg/mL (≈ 290 µM)
MIC [12]: 0.8 µg/mL (≈ 2.32 µM)
MIC [13]: 0.8 µg/mL (≈ 2.32 µM)
MIC [14]: 0.4 µg/mL (≈ 1.16 µM)
Inhibition Zone [15]: 28.5 mm
Inhibition Zone [16]: none
activity against Gram-positive bacteria (Gram-positive bacteria): a strong activity against Gram-positive bacteria than nanaomycin A
activity against mycoplasma(s) (mycoplasmas): as strong activity against fungi and mycoplasmas as nanaomycin A
Solubility in ether (Solubility): Soluble
Solubility in methanol, ethanol, ethylacetate, chloroform and acetone (Solubility): Soluble
Solubility in n-hexane and petroleum ether (Solubility): Insoluble
Solubility in water (Solubility): Insoluble
LD50 (in vivo): 38.5 mg/kg
